According to ChEMBL document CHEMBL1201862, “PubChem BioAssay data set” (2004):
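Growth conditions: 96-well plates. Treatment: test compound, 48 hours, 5 concentrations. Analysis: linear interpolation between bracketing concentrations; unreached endpoints set to highest concentration. Here, GI50 denotes the concentration required for 50% inhibition of growth.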 The source made the active and inactive calls. Cut-off read from the data, not from the text of the source: active = GI50 up to about 1.1 µM and inactive = higher.

Key:
Test in all cases: NCI-60 cell line screen, 48 h
KM12 = test system: KM12
HCT-15 = test system: HCT-15
A498 = test system: A498
LOX IMVI = test system: LOX IMVI
HOP-62 = test system: HOP-62
SNB-78 = test system: SNB-78
SF-268 = test system: SF-268
786-0 = test system: 786-0
HT-29 = test system: HT-29
SW-620 = test system: SW-620
UO-31 = test system: UO-31
OVCAR-3 = test system: OVCAR-3
U-251 = test system: U-251
HOP-92 = test system: HOP-92
KM-20L2 = test system: KM-20L2
SNB-19 = test system: SNB-19
SR = test system: SR
DMS-273 = test system: DMS-273
SK-MEL-5 = test system: SK-MEL-5
SK-MEL-2 = test system: SK-MEL-2
IGROV-1 = test system: IGROV-1
NCI-H522 = test system: NCI-H522
M14 = test system: M14
K562 = test system: K562
SF-539 = test system: SF-539
LXFL 529 = test system: LXFL 529
OVCAR-4 = test system: OVCAR-4
HL-60 = test system: HL-60
ACHN = test system: ACHN
UACC-62 = test system: UACC-62
UACC-257 = test system: UACC-257
CAKI-1 = test system: CAKI-1
M19-MEL = test system: M19-MEL
SF-295 = test system: SF-295
NCI-H226 = test system: NCI-H226
NCI-H23 = test system: NCI-H23
TK-10 = test system: TK-10
EKVX = test system: EKVX
SK-MEL-28 = test system: SK-MEL-28
HCT-116 = test system: HCT-116
COLO 205 = test system: COLO 205
DMS-114 = test system: DMS-114
NCI-H460 = test system: NCI-H460
RPMI-8226 = test system: RPMI-8226
OVCAR-8 = test system: OVCAR-8
CCRF-CEM = test system: CCRF-CEM
OVCAR-5 = test system: OVCAR-5
MOLT-4 = test system: MOLT-4
XF498 = test system: XF498
SK-OV-3 = test system: SK-OV-3
A549 = test system: A549
MCF7 = test system: MCF7
T47D = test system: T47D
BT-549 = test system: BT-549
SNB-75 = test system: SNB-75
Hs-578T = test system: Hs-578T
MDA-MB-435 = test system: MDA-MB-435
MDA-MB-231 = test system: MDA-MB-231
SN12C = test system: SN12C
DU-145 = test system: DU-145
Malme-3M = test system: Malme-3M
NCI/ADR-RES = test system: NCI/ADR-RES
PC-3 = test system: PC-3
HCC 2998 = test system: HCC 2998
RXF 393 = test system: RXF 393
MDA-N = test system: MDA-N

Q: With `CCOC(=O)/C(=C/c1cccc(OC)c1)N(CC)CC` as the compound, how does the GI50 (KM12) read?
A: > 100 µM (inactive)

Q: What about the GI50 (HCT-15) of the same compound?
A: > 100 µM

Q: What about the GI50 (A498) of the same compound?
A: > 100 µM (inactive)

Q: What about the GI50 (LOX IMVI) of the same compound?
A: > 100 µM (inactive)

Q: What about the GI50 (HOP-62) of the same compound?
A: > 100 µM (inactive)

Q: What about the GI50 (SNB-78) of the same compound?
A: > 100 µM (inactive)

Q: And the GI50 (SF-268)?
A: > 100 µM (inactive)

Q: What about the GI50 (786-0) of the same compound?
A: > 100 µM (inactive)

Q: What about the GI50 (HT-29) of the same compound?
A: > 100 µM (inactive)

Q: And the GI50 (SW-620)?
A: > 100 µM (inactive)

Q: What about the GI50 (UO-31) of the same compound?
A: > 100 µM (inactive)

Q: And the GI50 (OVCAR-3)?
A: > 100 µM (inactive)

Q: What about the GI50 (U-251) of the same compound?
A: > 100 µM (inactive)

Q: What about the GI50 (HOP-92) of the same compound?
A: > 100 µM (inactive)

Q: And the GI50 (KM-20L2)?
A: > 100 µM (inactive)

Q: What about the GI50 (SNB-19) of the same compound?
A: > 100 µM (inactive)

Q: And the GI50 (SR)?
A: > 100 µM (inactive)

Q: What about the GI50 (DMS-273) of the same compound?
A: > 100 µM (inactive)

Q: What about the GI50 (SK-MEL-5) of the same compound?
A: > 100 µM (inactive)

Q: And the GI50 (SK-MEL-2)?
A: > 100 µM (inactive)

Q: What about the GI50 (IGROV-1) of the same compound?
A: > 100 µM (inactive)

Q: And the GI50 (NCI-H522)?
A: > 100 µM (inactive)

Q: What about the GI50 (M14) of the same compound?
A: > 100 µM (inactive)

Q: What about the GI50 (K562) of the same compound?
A: > 100 µM (inactive)

Q: What about the GI50 (SF-539) of the same compound?
A: > 100 µM (inactive)

Q: And the GI50 (LXFL 529)?
A: > 100 µM (inactive)

Q: And the GI50 (OVCAR-4)?
A: > 100 µM (inactive)

Q: And the GI50 (HL-60)?
A: > 100 µM (inactive)

Q: And the GI50 (ACHN)?
A: > 100 µM (inactive)

Q: And the GI50 (UACC-62)?
A: > 100 µM (inactive)

Q: And the GI50 (UACC-257)?
A: > 100 µM (inactive)

Q: And the GI50 (CAKI-1)?
A: > 100 µM (inactive)

Q: What about the GI50 (M19-MEL) of the same compound?
A: > 100 µM (inactive)

Q: What about the GI50 (SF-295) of the same compound?
A: > 100 µM (inactive)

Q: And the GI50 (NCI-H226)?
A: > 100 µM (inactive)

Q: What about the GI50 (NCI-H23) of the same compound?
A: > 100 µM (inactive)

Q: And the GI50 (TK-10)?
A: > 100 µM (inactive)

Q: And the GI50 (EKVX)?
A: > 100 µM (inactive)

Q: And the GI50 (SK-MEL-28)?
A: > 100 µM (inactive)

Q: What about the GI50 (HCT-116) of the same compound?
A: > 100 µM (inactive)

Q: What about the GI50 (COLO 205) of the same compound?
A: > 100 µM (inactive)

Q: And the GI50 (DMS-114)?
A: > 100 µM (inactive)

Q: And the GI50 (NCI-H460)?
A: > 10 µM (inactive)

Q: What about the GI50 (RPMI-8226) of the same compound?
A: > 100 µM (inactive)

Q: And the GI50 (OVCAR-8)?
A: > 100 µM (inactive)

Q: What about the GI50 (CCRF-CEM) of the same compound?
A: > 100 µM (inactive)

Q: And the GI50 (OVCAR-5)?
A: > 100 µM (inactive)

Q: What about the GI50 (MOLT-4) of the same compound?
A: > 100 µM (inactive)

Q: What about the GI50 (XF498) of the same compound?
A: > 100 µM (inactive)

Q: What about the GI50 (SK-OV-3) of the same compound?
A: > 100 µM (inactive)

Q: What about the GI50 (A549) of the same compound?
A: > 100 µM (inactive)

Q: Which results are given for `C/C=C/[C@@H](C(=O)OC)N1C(=O)c2ccccc2[C@H]1O`?
A: GI50 (KM12): > 100 µM (inactive); GI50 (MCF7): > 100 µM (inactive); GI50 (HCT-15): > 100 µM; GI50 (A498): > 100 µM (inactive); GI50 (T47D): > 100 µM (inactive); GI50 (LOX IMVI): > 100 µM (inactive); GI50 (HOP-62): > 100 µM (inactive); GI50 (BT-549): > 100 µM (inactive); GI50 (SF-268): > 100 µM (inactive); GI50 (SNB-75): > 100 µM (inactive); GI50 (786-0): > 100 µM (inactive); GI50 (HT-29): > 100 µM (inactive); GI50 (SW-620): > 100 µM (inactive); GI50 (Hs-578T): > 100 µM (inactive); GI50 (UO-31): > 100 µM (inactive); GI50 (OVCAR-3): > 100 µM (inactive); GI50 (MDA-MB-435): > 100 µM (inactive); GI50 (U-251): > 100 µM (inactive); GI50 (MDA-MB-231): > 100 µM (inactive); GI50 (HOP-92): > 100 µM (inactive); GI50 (SN12C): > 100 µM (inactive); GI50 (SNB-19): > 100 µM (inactive); GI50 (SR): > 100 µM (inactive); GI50 (SK-MEL-5): > 100 µM (inactive); GI50 (SK-MEL-2): > 100 µM (inactive); GI50 (IGROV-1): > 100 µM (inactive); GI50 (NCI-H522): > 100 µM (inactive); GI50 (M14): > 100 µM (inactive); GI50 (K562): > 100 µM (inactive); GI50 (SF-539): > 100 µM (inactive); GI50 (DU-145): > 100 µM (inactive); GI50 (Malme-3M): > 100 µM (inactive); GI50 (OVCAR-4): > 100 µM (inactive); GI50 (HL-60): > 100 µM (inactive); GI50 (ACHN): > 100 µM (inactive); GI50 (NCI/ADR-RES): > 100 µM (inactive); GI50 (UACC-62): > 100 µM (inactive); GI50 (UACC-257): > 100 µM (inactive); GI50 (CAKI-1): > 100 µM (inactive); GI50 (SF-295): > 100 µM (inactive); GI50 (NCI-H226): > 100 µM (inactive); GI50 (PC-3): > 100 µM (inactive); GI50 (NCI-H23): > 100 µM (inactive); GI50 (TK-10): > 100 µM (inactive); GI50 (EKVX): > 100 µM (inactive); GI50 (SK-MEL-28): > 100 µM (inactive); GI50 (HCT-116): > 100 µM (inactive); GI50 (COLO 205): > 100 µM (inactive); GI50 (HCC 2998): > 100 µM (inactive); GI50 (NCI-H460): > 100 µM (inactive); GI50 (RPMI-8226): > 100 µM (inactive); GI50 (OVCAR-8): > 100 µM (inactive); GI50 (CCRF-CEM): > 100 µM (inactive); GI50 (OVCAR-5): > 100 µM (inactive); GI50 (MOLT-4): > 100 µM (inactive); GI50 (RXF 393): > 100 µM (inactive); GI50 (MDA-N): > 100 µM (inactive); GI50 (SK-OV-3): > 100 µM (inactive); GI50 (A549): > 100 µM (inactive)
